This is an account of results in PubChem BioAssay AID256 (DTP/NCI, 2004).

Each structure is given as a SMILES string. Several values for one entry are separate records, joined by “and”; a condition that tells them apart may be missing. Identical values can stand only once. Inconclusive results and toxic doses are left out.

The test concerns CD2F1 mice, L1210 leukemia ip, survival T/C. Put plainly: NCI In Vivo Anticancer Drug Screen. Data for tumor model L1210 Leukemia (intraperitoneal) in CD2F1 (CDF1) mice. The following applies: endpoint: mean survival time, higher = longer survival. The procedure, abridged:
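Ratio T/C, where T is the treated-group value and C the vehicle-dosed control value, from mice implanted with a transplantable tumor.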

[1] abbreviates: dose: 100.0 mg/kg/injection, schedule: Q01DX001 (ip), vehicle: saline with Tween-80.
Where [2] appears, read: dose: 100.0 mg/kg/injection, schedule: Q01DX009 (ip), vehicle: saline with Tween-80.
[3] abbreviates: dose: 200.0 mg/kg/injection, schedule: Q01DX001 (ip), vehicle: saline with Tween-80.
[4] abbreviates: dose: 200.0 mg/kg/injection, schedule: Q01DX009 (ip), vehicle: saline with Tween-80.
Where [5] appears, read: dose: 400.0 mg/kg/injection, schedule: Q01DX001 (ip), vehicle: saline with Tween-80.
[6] abbreviates: dose: 400.0 mg/kg/injection, schedule: Q01DX009 (ip), vehicle: saline with Tween-80.
Setting [7] is: dose: 100.0 mg/kg/injection, schedule: Q01DX001 (ip), vehicle: saline.
[8] abbreviates: dose: 200.0 mg/kg/injection, schedule: Q01DX001 (ip), vehicle: saline.
Where [9] appears, read: dose: 400.0 mg/kg/injection, schedule: Q01DX001 (ip), vehicle: saline.
[10] abbreviates: dose: 100.0 mg/kg/injection, schedule: Q01DX009 (ip), vehicle: saline.
Where [11] appears, read: dose: 200.0 mg/kg/injection, schedule: Q01DX009 (ip), vehicle: saline.
Setting [12] is: dose: 100.0 mg/kg/injection, schedule: Q04DX002 (ip), vehicle: saline with Tween-80.
Where [13] appears, read: dose: 200.0 mg/kg/injection, schedule: Q04DX002 (ip), vehicle: saline with Tween-80.
Where [14] appears, read: dose: 400.0 mg/kg/injection, schedule: Q04DX002 (ip), vehicle: saline with Tween-80.
Where [15] appears, read: dose: 25.0 mg/kg/injection, schedule: Q01DX001 (ip), vehicle: saline.

On to `CCCCCCCCCCCCCCCCOC(=O)c1cc([N+](=O)[O-])cc([N+](=O)[O-])c1Sc1ncnc2nc[nH]c12`, for which the T/C is 105 % of control (dose: 0.63 mg/kg/injection, schedule: Q01DX005 (ip), vehicle: other); 108 % of control (dose: 1.25 mg/kg/injection, schedule: Q01DX005 (ip), vehicle: other); 113 % of control (dose: 2.5 mg/kg/injection, schedule: Q01DX005 (ip), vehicle: other); 113 % of control (dose: 5.0 mg/kg/injection, schedule: Q01DX005 (ip), vehicle: other); 120 % of control (dose: 10.0 mg/kg/injection, schedule: Q01DX005 (ip), vehicle: other); 109 % of control (dose: 12.5 mg/kg/injection, schedule: Q01DX005 (ip), vehicle: other). In addition, the T/C is, setting by setting: (dose: 15.7 mg/kg/injection, schedule: Q01DX005 (ip), vehicle: other) 106 % of control; (dose: 25.0 mg/kg/injection, schedule: Q01DX005 (ip), vehicle: other) 117 % of control and 112 % of control; (dose: 31.3 mg/kg/injection, schedule: Q01DX005 (ip), vehicle: other) 124 % of control; (dose: 50.0 mg/kg/injection, schedule: Q01DX005 (ip), vehicle: other) 115 % of control and 122 % of control; (dose: 100.0 mg/kg/injection, schedule: Q01DX005 (ip), vehicle: other) 116 % of control; (dose: 400.0 mg/kg/injection, schedule: Q01DX005 (ip), vehicle: other) 118 % of control.
Regarding `CCCC(=O)Nc1ccccc1`, the T/C runs as follows: under setting [1], 96 % of control; under setting [2], 102 % of control; under setting [3], 95 % of control; under setting [4], 102 % of control; under setting [5], 98 % of control; under setting [6], 112 % of control.
On to `CCCN(CCC)S(=O)(=O)c1ccc(NC(=O)Oc2cc(C)ccc2C(C)C)cc1`, for which the T/C under setting [7] was 100 % of control, the T/C under setting [8] was 95 % of control and the T/C under setting [9] is 94 % of control.
For the molecule `CC(=O)OCC1CCCN1C(C)=O` (stereo not drawn), the T/C under setting [7] is 97 % of control, the T/C under setting [8] was 97 % of control and the T/C under setting [9] was 97 % of control.
Turning to `CCN(CC)C(=O)c1ccccc1`, the T/C is 98 % of control under setting [10] and 98 % of control under setting [11].
For the molecule `O=[N+]([O-])c1ccc2c(c1)sc1cc([N+](=O)[O-])c(Br)cc12`, the T/C by setting is: under setting [12], 97 % of control; under setting [13], 94 % of control; under setting [14], 112 % of control.
For the molecule `COc1cccc(OC)c1C1=CCCCCC1`, the T/C runs as follows: under setting [1], 96 % of control; under setting [2], 101 % of control; under setting [3], 98 % of control; under setting [4], 97 % of control; under setting [5], 93 % of control; under setting [6], 104 % of control.
Consider `O=C(O)C(CSC(c1ccccc1)(c1ccccc1)c1ccccc1)NC(c1ccccc1)c1ccccc1` (stereo not drawn), for which the T/C is 101 % of control (dose: 50.0 mg/kg/injection, schedule: Q01DX009 (ip), vehicle: saline); 98 % of control under setting [10]; 101 % of control under setting [11]; 101 % of control (dose: 400.0 mg/kg/injection, schedule: Q01DX009 (ip), vehicle: saline).
Regarding `CCOC(=O)Nc1cc(Nc2ccccc2)c2[nH]cnc2n1`, the T/C reads like this: (dose: 12.5 mg/kg/injection, schedule: Q01DX001 (ip), vehicle: Klucel (hydroxypropylcellulose) (HPC)) 96 % of control; (dose: 25.0 mg/kg/injection, schedule: Q01DX001 (ip), vehicle: Klucel (hydroxypropylcellulose) (HPC)) 93 % of control; (dose: 50.0 mg/kg/injection, schedule: Q01DX001 (ip), vehicle: Klucel (hydroxypropylcellulose) (HPC)) 93 % of control; (dose: 100.0 mg/kg/injection, schedule: Q01DX001 (ip), vehicle: Klucel (hydroxypropylcellulose) (HPC)) 93 % of control; (dose: 200.0 mg/kg/injection, schedule: Q01DX001 (ip), vehicle: Klucel (hydroxypropylcellulose) (HPC)) 95 % of control; (dose: 400.0 mg/kg/injection, schedule: Q01DX001 (ip), vehicle: Klucel (hydroxypropylcellulose) (HPC)) 93 % of control.
As for `COC(=O)c1ccc(N2C(=O)C=CC2=O)cc1`, the T/C is 108 % of control (dose: 1.5 mg/kg/injection, schedule: Q01DX009 (ip), vehicle: saline with Tween-80) and 108 % of control (dose: 3.0 mg/kg/injection, schedule: Q01DX009 (ip), vehicle: saline with Tween-80).
For `O=C1NCC2(CCN(Cc3ccccc3)CC2)N1c1ccccc1`, the T/C is 93 % of control (dose: 100.0 mg/kg/injection, schedule: Q04DX003 (ip), vehicle: saline with Tween-80); 89 % of control (dose: 200.0 mg/kg/injection, schedule: Q04DX003 (ip), vehicle: saline with Tween-80); 89 % of control (dose: 400.0 mg/kg/injection, schedule: Q04DX003 (ip), vehicle: saline with Tween-80).
With `CCCCOC(=O)c1cccc([N+](=O)[O-])c1`, the T/C by setting is: (dose: 50.0 mg/kg/injection, schedule: Q01DX009 (ip), vehicle: saline with Tween-80) 93 % of control; under setting [2], 104 % of control; under setting [4], 105 % of control.
For the molecule `CS(=O)(=O)C(Cl)(Cl)S(C)(=O)=O`, the T/C was 95 % of control (dose: 6.25 mg/kg/injection, schedule: Q04DX003 (ip), vehicle: saline with Tween-80); 91 % of control (dose: 12.5 mg/kg/injection, schedule: Q04DX003 (ip), vehicle: saline with Tween-80); 91 % of control (dose: 25.0 mg/kg/injection, schedule: Q04DX003 (ip), vehicle: saline with Tween-80).
As to `Brc1ccc2sc3ccccc3c2c1`, the T/C is 102 % of control under setting [12], 89 % of control under setting [13] and 91 % of control under setting [14].
For the molecule `c1ccc(N/N=C2/c3ccccc3CC23OC3c2ccccc2)cc1` (stereo not drawn), the T/C (dose: 25.0 mg/kg/injection, schedule: Q01DX009 (ip), vehicle: Klucel (hydroxypropylcellulose) (HPC)) was 97 % of control; the T/C (dose: 50.0 mg/kg/injection, schedule: Q01DX009 (ip), vehicle: Klucel (hydroxypropylcellulose) (HPC)) was 97 % of control; the T/C (dose: 100.0 mg/kg/injection, schedule: Q01DX009 (ip), vehicle: Klucel (hydroxypropylcellulose) (HPC)) is 91 % of control; the T/C (dose: 200.0 mg/kg/injection, schedule: Q01DX009 (ip), vehicle: Klucel (hydroxypropylcellulose) (HPC)) was 97 % of control; the T/C (dose: 400.0 mg/kg/injection, schedule: Q01DX009 (ip), vehicle: Klucel (hydroxypropylcellulose) (HPC)) was 97 % of control.
Take `CC1CC(C)(C)N=C(CCNCc2ccccc2)O1` (stereo not drawn): the T/C (dose: 6.25 mg/kg/injection, schedule: Q01DX001 (ip), vehicle: saline) was 95 % of control; the T/C (dose: 12.5 mg/kg/injection, schedule: Q01DX001 (ip), vehicle: saline) is 110 % of control; the T/C under setting [15] was 103 % of control.
Consider `O=NN(CCCl)C(=O)NC1C(O)C(O)C(O)C(O)C1O` (stereo not drawn), for which the T/C was 167 % of control and 220 % of control (dose: 13.0 mg/kg/injection, schedule: Q01DX001 (ip), vehicle: saline); 173 % of control and 227 % of control (dose: 20.0 mg/kg/injection, schedule: Q01DX001 (ip), vehicle: saline); 255 % of control under setting [15]; 271 % of control and 282 % of control (dose: 30.0 mg/kg/injection, schedule: Q01DX001 (ip), vehicle: saline); 197 % of control (dose: 44.0 mg/kg/injection, schedule: Q01DX001 (ip), vehicle: saline).
Take `Cc1nccc2cc3c(cc12)Cc1ccccc1-3`: the T/C was 88 % of control under setting [12], 92 % of control under setting [13] and 88 % of control under setting [14].
`COc1ccc(C(=O)C(Br)Br)cc1OC`: the T/C is 112 % of control (dose: 3.13 mg/kg/injection, schedule: Q04DX002 (ip), vehicle: saline with Tween-80); 100 % of control (dose: 6.25 mg/kg/injection, schedule: Q04DX002 (ip), vehicle: saline with Tween-80); 100 % of control (dose: 12.5 mg/kg/injection, schedule: Q04DX002 (ip), vehicle: saline with Tween-80).
